The target in one test is Prothrombin (Homo sapiens, UniProt P00734). Description: Binding affinity for human thrombin.
The target of another test is Coagulation factor X (Homo sapiens, UniProt P00742). As to the kind of experiment: Inhibition of Coagulation factor X.
Coagulation factor X, sequence (P00742 41-179 limits assumed): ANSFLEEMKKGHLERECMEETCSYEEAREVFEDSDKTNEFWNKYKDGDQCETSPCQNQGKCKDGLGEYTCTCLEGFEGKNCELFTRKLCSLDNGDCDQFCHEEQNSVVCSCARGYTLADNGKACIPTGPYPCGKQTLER
Coagulation factor X, sequence (P00742 235-488 limits assumed): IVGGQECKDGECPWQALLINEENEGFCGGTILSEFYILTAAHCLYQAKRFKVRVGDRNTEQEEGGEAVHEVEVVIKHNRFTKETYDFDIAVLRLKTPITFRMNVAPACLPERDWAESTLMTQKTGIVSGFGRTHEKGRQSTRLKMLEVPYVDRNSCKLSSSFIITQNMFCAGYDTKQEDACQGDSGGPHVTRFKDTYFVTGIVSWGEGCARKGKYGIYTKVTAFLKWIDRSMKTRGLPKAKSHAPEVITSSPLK

What is called Ki is a dissociation constant, usually derived from enzyme kinetics or from competition with a known ligand. Turning to `CN(CC(=O)N[C@@H](CCCCN)B(O)O)C(=O)c1ccccc1Sc1ccccc1`, the inhibition constant (Ki) at Prothrombin is 1.6 nM; on Coagulation factor X it was 17 nM.
For `CN(CC(=O)N[C@@H](CCCCN)C(=O)C(=O)NCc1ccccn1)C(=O)c1ccccc1Sc1ccccc1C#N` the same measures were 7400 nM and 360 nM.
For `CNC(=O)C(=O)[C@H](CCCCN)NC(=O)CN(C)C(=O)c1ccccc1Sc1ccccc1C#N` the same measures were 570 nM and 110 nM.
For `CN(CC(=O)N[C@@H](CCCCN)C(=O)C(=O)Nc1ccc(Oc2cccc(N)c2)cc1)C(=O)c1ccccc1Sc1ccccc1C#N` the same measures were 59 nM and 120 nM.
Take `CN(CC(=O)N[C@@H](CCCCN)B(O)O)C(=O)c1ccccc1Cc1ccccc1`: the values for the Ki at Prothrombin and on Coagulation factor X were 4.9 nM and 100 nM, respectively.
As for `CN(CC(=O)N[C@@H](CCCCN)B(O)O)C(=O)c1ccccc1S(=O)(=O)c1ccccc1`, the results for the inhibition constant Ki on Prothrombin and on Coagulation factor X were 97 nM and 5800 nM, respectively.
In the case of `CN(CC(=O)N[C@@H](CCCCN)C(=O)C(=O)Nc1ccc(Oc2cccnc2)cc1)C(=O)c1ccccc1Sc1ccccc1C#N`, the inhibitory constant (Ki) on Prothrombin is 50 nM; on Coagulation factor X, 60 nM.
Regarding `CN(CC(=O)N[C@@H](CCCCN)C(=O)C(=O)Nc1cccc(N)c1)C(=O)c1ccccc1Sc1ccccc1C#N`, the inhibitory constant (Ki) at Prothrombin and at Coagulation factor X was 120 nM in each case.
For the molecule `CN(CC(=O)N[C@@H](CCCCN)C(=O)C(=O)Nc1ccc(Oc2ccc(N)cc2)cc1)C(=O)c1ccccc1Sc1ccccc1C#N`, the inhibition constant (Ki) stood at 68 nM on Prothrombin and 120 nM at Coagulation factor X.
For `CN(CC(=O)N[C@@H](CCCCN)C(=O)C(=O)NCCN1CCOCC1)C(=O)c1ccccc1Sc1ccccc1C#N` the same measures were 8700 nM and 200 nM.
For `CN(CC(=O)N[C@@H](CCCCN)C(=O)C(=O)Nc1ccccc1)C(=O)c1ccccc1Sc1ccccc1C#N` the same measures were 60 nM and 54 nM.
Regarding `CN(CC(=O)N[C@@H](CCCCN)B(O)O)C(=O)c1ccccc1Sc1ccccc1C#N`, the Ki at Prothrombin stood at 8.8 nM; on Coagulation factor X it was 1.1 nM.

For the origin of these results see ChEMBL document CHEMBL1132908, “Synthesis and activity studies of conformationally restricted alpha-ketoamide factor Xa inhibitors” (Bioorg Med Chem Lett, 2000).
